Active and inactive are the calls of the source. The rule behind the calls is not given here.

For two compounds, Activity results are on record in ChEMBL document CHEMBL1144668, “Mono- and dialkyl isoprenoid bisphosphonates as geranylgeranyl diphosphate synthase inhibitors” (Bioorg Med Chem, 2008).

This test has as its system K562. As to the kind of experiment: Inhibition of Ras farnesylation in human K562 cells after 24 hrs by Western blot. It counts as functional, cell-based. (In general: In western blotting, separated proteins are transferred to a membrane and probed.)

For `CC(C)=CCC/C(C)=C\CC(C/C=C(\C)CCC=C(C)C)(P(=O)(O)O)P(=O)(O)O`, the outcome was inactive.
As to `CC(C)=CCCC(C)=CCC(CC=C(C)CCC=C(C)C)(P(=O)(O)O)P(=O)(O)O`, the result was inactive.
